Data taken from patent US20210015884A1 (priority 2018, published 2021).

System: m^6A levels in viral RNA
Format: cell-based

| SMILES | total m^6A levels in viral RNA |
| --- | --- |
| Nc1nccc2c1ncn2[C@@H]1O[C@H](CO)[C@@H](O)[C@H]1O [3DZA, 3-Deazaadenosine] | reduction of m^6A |
| Cc1ccc(Cl)c(Nc2ccccc2C(=O)O)c1Cl [MA, meclofenamic acid] | increase of m^6A |
